Assay results as given in patent US20210289794A1, “COMPOSITIONS AND RELATED METHODS FOR AGRICULTURE” (Flagship Pioneering Innovations V, Inc., priority 2018, published 2021).
Peptide text beside a SMILES is read from it.

System: Candidatus Pantoea carbekii
Experiment: Quantification of P. carbekii titers by RT-qPCR in H. halys nymphs hatched from treated eggs
Format: in vivo, Halyomorpha halys
Details: for levels of P. carbekii (symbiont levels per host; ratio of P. carbekii dnaK to H. halys 60s expression): Example 5: egg mass treatment, late 2nd instars, vs water control, FIG. 5; for levels of P. carbekii (ratio of P. carbekii dnaK to H. halys 60s expression): third instars collected, vs negative control
Description: Total RNA was extracted from nymphs using total RNA isolation and purification kits (both from Thermo Fisher Scientific), and the extracted RNA was eluted in 100 μL water. […] Each of the PCR mixtures was 10 μL in volume. RT-qPCR was performed using a PCR amplification ramp of 1.6° C./s and the following conditions: 1) 48° C. for 30 min; 2) 95° C. for 10 minutes; 3) 95° C. for 15 seconds; 4) 55° C. for 30 seconds; 5) repeat steps 3-4 40×, 6); 95° C. for 15 seconds; 7) 55° C. for 1 minute; 8) ramp change to 0.15° C./s; 9) 95° C. for 1 second. RT-qPCR data was analyzed using analytic software (Thermo Fisher Scientific).
Working concentrations of the PHA synthesis inhibitors (vanillin, levulinic acid, acrylic acid (AA), and 2-bromooctanoic acid (2BA)) were made up to 100 μg/ml in water. The solutions of PHA inhibitors were spiked with a non-ionic wetting solution to a final concentration of 0.025% to increase the wettability and spreading of the agents on the eggs. As a negative control, no agents were added to the 0.025% non-ionic wetting solution, and as a positive control, 100 μg/ml of the antibiotic rifamycin S was used. Egg masses on leaf disks were removed from the colony in a single day during peak egg production. Each egg mass was then placed in a container with a paper towel at the bottom, and a tube of water plugged with cotton was provided as a water source for the hatchlings. 100 μl of the agent was pipetted onto the eggs to wet them completely. This allowed the agent to interact directly with the bacteria before the bacteria was able to colonize the host. Once the 1st instar hatchlings molted to the 2nd instar stage, food was provided in the form of 500 mg diet pellets (see “Halyomorpha halys lab colony rearing and maintenance” above). Late 2nd instars were collected and frozen to extract DNA to assay for the symbiont levels, as described in Example 4. […]

[1] = 100 μg/ml in water with 0.025% non-ionic wetting solution, 100 μl
[2] = Example 6: egg mass treatment, 100 μg/ml in water with 0.025% Silwet L-77, 100 μl, FIG. 6

Row | Structure (SMILES) | levels of P. carbekii (symbiont levels per host; ratio of P. carbekii dnaK to H. halys 60s expression) [1] | levels of P. carbekii (ratio of P. carbekii dnaK to H. halys 60s expression) [2] | levels of P. carbekii (ratio of P. carbekii dnaK to H. halys 60s expression) (Example 7: egg mass treatment, 100 μg/ml in water with 0.025% non-ionic wetting solution, 100 μl, FIG. 7)
1 | CCCCCCC(Br)C(=O)O (centres unmarked) [2-bromooctanoic acid] | reduction in the symbiont levels per host |  | 
2 | CC[C@H](C)[C@H](N)C1=N[C@H](C(=O)N[C@@H](CC(C)C)C(=O)N[C@H](CCC(=O)O)C(=O)N[C@H](C(=O)N[C@H]2CCCCNC(=O)[C@H](CC(N)=O)NC(=O)[C@@H](CC(=O)O)NC(=O)[C@H](Cc3cnc[nH]3)NC(=O)[C@@H](Cc3ccccc3)NC(=O)[C@H]([C@@H](C)CC)NC(=O)[C@@H](CCCN)NC2=O)[C@@H](C)CC)CS1 [bacitracin] (HELM PEPTIDE1{[CC[C@H](C)[C@H](N)C1=N[C@H](C(=O)[*:2])CS1].L.[dE].I.K.[NCCC[C@@H](N[*:1])C(=O)[*:2]].I.[dF].H.[dD].N}$PEPTIDE1,PEPTIDE1,5:R3-11:R2$$$V2.0) |  | significantly lower | 
3 | C=CC(=O)O [acrylic acid] | reduction in the symbiont levels per host |  | 
4 | CC(=O)CCC(=O)O [levulinic acid] | reduction in the symbiont levels per host |  | 
5 | CO[C@H]1/C=C/O[C@@]2(C)Oc3c(C)c(O)c4c(c3C2=O)C(=O)C=C(NC(=O)/C(C)=C\C=C\[C@H](C)[C@H](O)[C@@H](C)[C@@H](O)[C@@H](C)[C@H](OC(C)=O)[C@@H]1C)C4=O [Rifamycin S] | significantly lower | significantly lower | significantly lower
6 | COc1cc(C=O)ccc1O [vanillin] | reduction in the symbiont levels per host |  | 
